Literature values, collected in patent publication US20210220374A1, “METHODS OF TREATING TE[…]” (Clarus Therapeutics, Inc., priority 2013, published 2021).

Details: cited from earlier work

| SMILES | Serum half-life of testosterone in men (in vivo) | Liver toxicity (oral therapy) |
| --- | --- | --- |
| C[C@]12CC[C@H]3[C@@H](CCC4=CC(=O)CC[C@@]43C)[C@@H]1CC[C@@H]2O [testosterone] | 10 to 100 min |  |
| C[C@]12CCC(=O)C=C1CC[C@@H]1[C@@H]2CC[C@@]2(C)[C@H]1CC[C@]2(C)O [methyltestosterone] |  | significant occurrence of liver toxicity |
